Experimental data reported in patent US20240196885A1, “INSECT PEST BAIT COMPOSITION WITH ISO[…] METHOD FOR CONTROLLING INSECT PESTS” (SYNGENTA CROP PROTECTION AG, priority 2021, published 2024).

Experiments:
Assay type in all cases: in vivo
[1] = test system: Atta bisphaerica (leaf cutter ant); assay: Field test for control of leaf cutter ant with pelleted citrus pulp bait; details: for control efficiency after opening the nests in the excavation of the anthills: excavation at 155 DAA, modified Abbott formula; for ceased activity in leaf cutting by ants: ninety days after application
Protocol: Bait preparation. Blends of citrus pulp and refined soybean oil (95/5 w/w %) were sprayed with an aqueous isocycloseram suspension concentrate (SC) such as […]™ (Syngenta Agro S.A.), further blended and pelletized. Bait pellets or granules having an isocycloseram a.i. loading of 0.05, 0.1, 0.2 and 0.3%, respectively, were prepared.
The field test for the control of Atta bisphaerica (leaf cutter ant) was conducted with the pelleted isocycloseram citrus pulp bait. The experimental design was completely randomized, with fourteen treatments and 10 replications, following the norms, considering an anthill as repetition. The treatments used were: isocyloseram −0.05% at doses of 6, 10 and 12 g/m^2, isocyloseram […] 0.1% at doses of 6, 10 and 12 g/m^2, isocyloseram −0.2% at doses of 6, 10 and 12 g/m^2, isocyloseram −0.3% at doses of 6, 10 and 12 g/m^2, A commercial standard Mirex-S (sulfluramid) at a dose of 10 g/m^2 and a control (Placebo); commercial product dosages per m^2 of loose earth. The evaluations with 1, 2, 3 and 7 DAA (days after application) included the loading rate parameters (%) (i.e. the % bait applied that is carried into the ant nest), return rate (%) (i.e. the % bait rejected by the colony) and intoxicated ants. As 1, 2, 3, 7, 15, 28, 60, 90, 118 and 155 DAA, the ground removal parameters (%) and leaf cutting and anthill excavation at 155 DAA.
The application of the products was carried out manually, with the aid of a dosing cup, near the scouts and trails of the anthills. The results obtained were submitted to variance analysis, compared by the Scott-Knott test (p≤0.05) and corrected by the modified Abbott formula for control calculation.

Musca domestica = assay: Adult house fly knockdown and mortality after exposure to a sugar bait
Protocol: (§1) Bait preparation. isocyloseram was applied dissolved in acetone to the appropriate insect diet such that the desired a.i. loading was delivered in the diet after the acetone had evaporated. • House fly—granulated sugar • Termites—filter paper • Darkling beetle—oat flakes
(§2) In a suitable arena, 10 insects of each species were exposed to 1 g of the solid baits. Baits were presented in such a way as to minimise the contact exposure. Three replicates of each treatment and species were conducted.
(§3) Insect knockdown was assessed one and three hours after exposure, and mortality after 24 and 48 and 168 hours.

[2] = test system: Reticulitermes santonensis; assay: Termite worker knockdown and mortality after exposure to filter paper bait
Protocol: as §1, §2, §3

Darkling beetle larvae [3] = assay: Darkling beetle larval knockdown and mortality after exposure to oat flake bait
Protocol: as §1, §2, §3

Darkling beetle adults = assay: Darkling beetle adult knockdown and mortality after exposure to oat flake bait; details: for Mean % knockdown or mortality: adults
Protocol: as §1, §2, §3

Darkling beetle larvae [4] = assay: Darkling beetle larval knockdown and mortality after exposure to oat flake bait; details: larval stage, 100 ppm, after seven days
[5] = test system: Agrotis ypsilon (Greasy cutworm); assay: Protection of corn seedlings from Agrotis ypsilon larvae in field arenas (bait, foliar spray, seed treatment)
Protocol: Trial layout: Arenas of 4 square metres were created in a field with 20 cm high plastic walls to prevent escape of larvae and influx of predators but left to the open air. 3 replicates per trearment were set up. Corn (variety Hightech 2031, conventional non-Bt) was planted at the rate of 30 seeds per arena.
Application method 1: For seed treatment, the seeds were treated with aqueous 40% isocycloseram formulation, such as […]™ (Syngenta Agro S.A.), one day before planting using a standard seed treatment water slurry volume of 50 ml/kg of seed. Four rates of isocycloseram seed treatment were tested 0.3, 0.6, 1.3 and 2.5 mg/seed.
Application method 2: For bait application, dried cobs of maize corn were ground after removal of the seeds to form a coarse granular “corn grit” bait carrier. The corn grit was spread out on a plastic sheet and sprayed with a 40% SC aqueous formulation of isocycloseram mixed with water at the rates of 15, 30 and 60 grams of isocycloseram per 70 kg of corn grit. The baits were then mixed homogeneously and spread by hand in the evening at a rate of 70 kg/ha (7 gr./sqm, or 28 gr./plot) evenly over the soil surface. This was done 4 days after planting, just before emergence of the corn to attract and kill the cutworms at night.
Application method 3: For foliar sprays, a standard hand-held spray-boom with flat-fan nozzles at 600 I/ha was used. The spray was made 1 day after release of the Greasy cutworm larvae at the 2 leaf stage (BBCH 12) of the corn. Three rates were used 30, 60 and 90 grams isocyclseram per hectare
Two check lots were included—both untreated, one with infestation and one without infestation.
Artificial infestation: Laboratory-reared Agrotis ypsilon (Greasy cutworm) larvae at the L5 stage were released into the arenas at a rate of 30 larvae per arena (1 larva per plant) in the morning. This infestation was made Infest 30 L5 larvae into each arena in the morning (1 larva per plant) approx 3 days after seeding just as corn is germinating. Make the application 8-24 hours later.
Assessment: The number of damaged plants per plot was measured at 21 days after the last application (the foliar spray).

[6] = test system: German cockroaches, Blattella germanica; assay: Cockroach peanut butter bait: donor mortality and secondary kill of recipients; details: for Recipient % mortality: recipients exposed to donors of 1% bait, not to the bait
Protocol: Isocycloseram was incorporated into the peanut-butter base by mixing 0.5 ml of a 10000 ppm (1%) solution of the compound in acetone into 0.5 g of peanut butter. The mixture was left in a fume cupboard for 24 hours to allow the acetone to evaporate, leaving […] of compound in 0.5 g of peanut butter, equivalent to 10000 ppm.
Five adult male and five non-gravid adult female German cockroaches, Blattella germanica, were marked with a dot of white paint, to identify them, and placed into a plastic arena approximately 20 cm in diameter. Also placed in each arena was a simple harbourage constructed from concertinaed card and a water source. After the cockroaches had acclimatised for 24 hours a 15 ml glass vial containing 0.5 g of the treated peanut butter bait was added.
After 48 hours the glass vial containing the bait was removed, and an assessment of the cockroach mortality was made. Five adult male and five non-gravid adult female German cockroaches, Blattella germanica, were added to the arena, leaving any dead or alive cockroaches with the white paint mark in the arena.
Mortality of both the marked and unmarked cockroaches was made after 24 and 96 hours.

[7] = test system: Agrotis ypsilon (Greasy cutworm); assay: Protection of corn seedlings from Agrotis ypsilon larvae in field arenas (bait, foliar spray, seed treatment); remark: listed apart in the source
[8] = 0.1% in oat flake bait, 3 hours
[9] = 0.1% in oat flake bait, 24 hours
[10] = 0.1% in oat flake bait, 48 hours
[11] = 0.1% in oat flake bait, 168 hours
[12] = 1% in oat flake bait, 168 hours

## CCN1OCC(NC(=O)c2ccc(C3=NOC(c4cc(Cl)c(F)c(Cl)c4)(C(F)(F)F)C3)cc2C)C1=O (centres unmarked) [isocyloseram, Isocycloseram]
[1]; 0.2% bait (10 and 12 g)
  control efficiency after opening the nests in the excavation of the anthills: higher than 84%
[1]; 0.3% bait (6, 10 and 12 g)
  control efficiency after opening the nests in the excavation of the anthills: higher than 84%
  ceased activity in leaf cutting by ants: 100%
[1]; first three days after application of bait
  response rate as a function of the time of intoxication: 87.5%
[1]; 0.1% bait (12 g)
  ceased activity in leaf cutting by ants: 100%
[1]; 0.2% bait (6, 10 and 12 g)
  ceased activity in leaf cutting by ants: 100%
[1]; seven days after bait application
  response rate as a function of the time of intoxication: 100%
[1]; twenty-eight days after treatment
  average (ground) removal: less than 5%
Musca domestica; 0.10% in sugar bait, 1 hour
  Mean % knockdown or mortality: 0%
Musca domestica; 0.10% in sugar bait, 3 hours
  Mean % knockdown or mortality: 57%
Musca domestica; 0.10% in sugar bait, 24 hours
  Mean % knockdown or mortality: 100%
Musca domestica; 1% in sugar bait, 1 hour
  Mean % knockdown or mortality: 0%
Musca domestica; 1% in sugar bait, 3 hours
  Mean % knockdown or mortality: 97%
Musca domestica; 1% in sugar bait, 24 hours
  Mean % knockdown or mortality: 100%
[2]; 0.10% in filter paper bait, 1 hour
  Mean % knockdown or mortality: 0%
[2]; 0.10% in filter paper bait, 3 hours
  Mean % knockdown or mortality: 0%
[2]; 0.10% in filter paper bait, 24 hours
  Mean % knockdown or mortality: 100%
[2]; 0.10% in filter paper bait, 48 hours
  Mean % knockdown or mortality: 100%
[2]; 1% in filter paper bait, 1 hour
  Mean % knockdown or mortality: 0%
[2]; 1% in filter paper bait, 3 hours
  Mean % knockdown or mortality: 7%
[2]; 1% in filter paper bait, 24 hours
  Mean % knockdown or mortality: 100%
[2]; 1% in filter paper bait, 48 hours
  Mean % knockdown or mortality: 100%
Darkling beetle larvae [3]; 0.1% in oat flake bait, 1 hour
  Mean % knockdown or mortality: 0%
Darkling beetle larvae [3]; [8]
  Mean % knockdown or mortality: 0%
Darkling beetle larvae [3]; [9]
  Mean % knockdown or mortality: 0%
Darkling beetle larvae [3]; [10]
  Mean % knockdown or mortality: 3%
Darkling beetle larvae [3]; [11]
  Mean % knockdown or mortality: 23%
Darkling beetle larvae [3]; 1% in oat flake bait, 1 hour
  Mean % knockdown or mortality: 0%
Darkling beetle larvae [3]; 1% in oat flake bait, 3 hours
  Mean % knockdown or mortality: 23%
Darkling beetle larvae [3]; 1% in oat flake bait, 24 hours
  Mean % knockdown or mortality: 80%
Darkling beetle larvae [3]; 1% in oat flake bait, 48 hours
  Mean % knockdown or mortality: 83%
Darkling beetle larvae [3]; [12]
  Mean % knockdown or mortality: 100%
Darkling beetle adults; adult stage, 100 ppm, after seven days
  mortality: 100%
Darkling beetle adults; 0.1% in oat flake bait, 1 hour
  Mean % knockdown or mortality: 0%
Darkling beetle adults; [8]
  Mean % knockdown or mortality: 0%
Darkling beetle adults; [9]
  Mean % knockdown or mortality: 0%
Darkling beetle adults; [10]
  Mean % knockdown or mortality: 3%
Darkling beetle adults; [11]
  Mean % knockdown or mortality: 7%
Darkling beetle adults; 1% in oat flake bait, 1 hour
  Mean % knockdown or mortality: 0%
Darkling beetle adults; 1% in oat flake bait, 3 hours
  Mean % knockdown or mortality: 0%
Darkling beetle adults; 1% in oat flake bait, 24 hours
  Mean % knockdown or mortality: 93%
Darkling beetle adults; 1% in oat flake bait, 48 hours
  Mean % knockdown or mortality: 97%
Darkling beetle adults; [12]
  Mean % knockdown or mortality: 100%
Darkling beetle larvae [4]
  mortality: 100%
[5]; Corn Grit Bait 0.42 gai/kg bait, equivalent 30 gai/ha
  % reduction of corn damage 22 d after infestation: 94%
[5]; Corn Grit Bait 0.63 gai/kg bait, equivalent 60 gai/ha
  % reduction of corn damage 22 d after infestation: 94%
[5]; Corn grit Bait 0.21 gai/kg bait, equivalent 15 gai/ha
  % reduction of corn damage 22 d after infestation: 87%
[5]; Foliar spray 30 gai/ha
  % reduction of corn damage 22 d after infestation: 37%
[5]; Foliar spray 60 gai/ha
  % reduction of corn damage 22 d after infestation: 46%
[5]; Foliar spray 90 gai/ha
  % reduction of corn damage 22 d after infestation: 74%
[5]; Seed treatment 0.3 mg ai/seed, equivalent 18 gai/ha
  % reduction of corn damage 22 d after infestation: 0%
[5]; Seed treatment 0.6 mg ai/seed, equivalent 36 gai/ha
  % reduction of corn damage 22 d after infestation: 2%
[5]; Seed treatment 1.3 mg ai/seed, equivalent 72 gai/ha
  % reduction of corn damage 22 d after infestation: 6%
[5]; Seed treatment 2.5 mg ai/seed, equivalent 144 gai/ha
  % reduction of corn damage 22 d after infestation: 13%
[6]; 1% in peanut butter bait, 48 hours
  Donor % mortality: 100%
[6]; 24 hours post introduction
  Recipient % mortality: 97%
[6]; 96 hours post introduction
  Recipient % mortality: 100%

## CC1(C)[C@H](C(=O)O[C@H](C#N)c2cccc(Oc3ccccc3)c2)[C@@H]1/C=C(\Cl)C(F)(F)F [lambdacyhalothrin, Lambdacyhalothrin]
[7]; Foliar spray 22.4 gai/ha
  % reduction of corn damage 22 d after infestation: 81%

## Spinetoram
[7]; Foliar spray 18 gai/ha
  % reduction of corn damage 22 d after infestation: 28%
